Experimental findings from patent publication US20100311729A1, “Substituted imidazopyridazines and pyrrolopyrimidines as lipid kinase inhibitors” (priority 2007, published 2010) are described below.

Common to all, as to format: biochemical
Assay [1] addresses T1, PI3K gamma (Homo sapiens, UniProt P48736).
T1 construct: PI3Kγ BV-950 p110g(D144aa)-C-Term His Tag; His tag (C); made in house; host or cells: construct from the Roger Williams lab (MRC LMB) in pVL1393; baculovirus; Tn5 (Trichoplusia ni) or TiniPro insect cells
As to the kind of experiment: PI3 kinase assay (Kinase-Glo luminescence), PI3K gamma. To be noted: Enzymatic Data; read-out: PI3K gamma IC50 [umol]. The procedure, abridged:
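Percent inhibition at eight concentrations (typically 10 to 0.003 […]) fitted to a four-parameter logistic model to give IC50. Reaction initiated with ATP; final ATP 1 μM and phosphatidylinositol 10 μg/mL; ATP consumption read by Kinase-Glo luminescence.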
Background: Kinase-Glo measures the ATP left after a reaction by luminescence.

The target in assay [2] is T2, PI3K alfa (Homo sapiens, UniProt P42336).
T2 construct: for the p110-a subunit (with a deletion of the first 20 amino acids); His tag (C); made in house; host or cells: baculovirus; Tn5 (Trichoplusia ni) or TiniPro insect cells
T2 sequence (P42336 with tags, fused parts or gaps limits assumed): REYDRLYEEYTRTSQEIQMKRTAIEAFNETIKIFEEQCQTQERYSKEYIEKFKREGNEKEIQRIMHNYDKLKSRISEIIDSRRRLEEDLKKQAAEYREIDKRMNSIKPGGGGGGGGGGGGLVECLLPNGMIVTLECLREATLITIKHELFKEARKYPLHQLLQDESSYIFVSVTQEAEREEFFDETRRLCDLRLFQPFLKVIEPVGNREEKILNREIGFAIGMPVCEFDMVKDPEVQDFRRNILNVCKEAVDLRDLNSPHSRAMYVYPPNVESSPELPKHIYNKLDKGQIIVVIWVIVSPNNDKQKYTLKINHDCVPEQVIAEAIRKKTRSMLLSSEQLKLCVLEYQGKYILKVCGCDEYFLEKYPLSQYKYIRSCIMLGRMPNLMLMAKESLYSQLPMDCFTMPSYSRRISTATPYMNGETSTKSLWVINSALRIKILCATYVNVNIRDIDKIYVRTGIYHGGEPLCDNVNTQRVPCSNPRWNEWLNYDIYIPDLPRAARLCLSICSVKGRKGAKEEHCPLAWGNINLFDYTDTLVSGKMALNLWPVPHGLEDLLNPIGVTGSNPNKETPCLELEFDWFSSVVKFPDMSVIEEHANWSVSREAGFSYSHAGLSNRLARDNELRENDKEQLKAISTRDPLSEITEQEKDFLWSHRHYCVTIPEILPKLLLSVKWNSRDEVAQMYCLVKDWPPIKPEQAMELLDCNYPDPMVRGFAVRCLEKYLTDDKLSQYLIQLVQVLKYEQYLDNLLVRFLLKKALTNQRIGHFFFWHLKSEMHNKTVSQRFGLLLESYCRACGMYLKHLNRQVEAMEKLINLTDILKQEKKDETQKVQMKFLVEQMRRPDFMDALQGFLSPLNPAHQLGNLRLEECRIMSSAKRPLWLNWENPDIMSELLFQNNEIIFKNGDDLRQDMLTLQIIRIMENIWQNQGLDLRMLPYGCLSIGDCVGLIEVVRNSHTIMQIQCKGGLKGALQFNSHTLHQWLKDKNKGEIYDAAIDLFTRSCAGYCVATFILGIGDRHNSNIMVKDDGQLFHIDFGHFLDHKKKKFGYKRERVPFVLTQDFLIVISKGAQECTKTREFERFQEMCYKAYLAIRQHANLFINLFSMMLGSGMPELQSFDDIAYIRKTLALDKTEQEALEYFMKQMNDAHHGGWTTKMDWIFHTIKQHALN
As to the kind of experiment: PI3 kinase assay (Kinase-Glo luminescence), PI3K alfa. To be noted: Enzymatic Data; read-out: PI3K alfa IC50 [umol]. The procedure, abridged:
(§1)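 Recombinant PI3K constructs (alfa 10 nM, delta 10 nM, gamma 150 nM) with 1 μM ATP and 10 μg/mL phosphatidylinositol in Tris pH 7.5, MgCl2, NaCl, CHAPS, DTT; 60 min (alfa, delta) or 120 min (gamma) at room temperature. ATP depletion read by Kinase-Glo luminescence; IC50 from 4-parameter logistic fit over 8 concentrations.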

The target in assay [3] is T3, PI3K delta (Homo sapiens, UniProt O00329).
T3 construct: for the full-length p110-d subunit are generated and fused by overlapping PCR; His tag (C); made in house; host or cells: baculovirus; Tn5 (Trichoplusia ni) or TiniPro insect cells
T3 sequence (O00329 with tags, fused parts or gaps limits assumed): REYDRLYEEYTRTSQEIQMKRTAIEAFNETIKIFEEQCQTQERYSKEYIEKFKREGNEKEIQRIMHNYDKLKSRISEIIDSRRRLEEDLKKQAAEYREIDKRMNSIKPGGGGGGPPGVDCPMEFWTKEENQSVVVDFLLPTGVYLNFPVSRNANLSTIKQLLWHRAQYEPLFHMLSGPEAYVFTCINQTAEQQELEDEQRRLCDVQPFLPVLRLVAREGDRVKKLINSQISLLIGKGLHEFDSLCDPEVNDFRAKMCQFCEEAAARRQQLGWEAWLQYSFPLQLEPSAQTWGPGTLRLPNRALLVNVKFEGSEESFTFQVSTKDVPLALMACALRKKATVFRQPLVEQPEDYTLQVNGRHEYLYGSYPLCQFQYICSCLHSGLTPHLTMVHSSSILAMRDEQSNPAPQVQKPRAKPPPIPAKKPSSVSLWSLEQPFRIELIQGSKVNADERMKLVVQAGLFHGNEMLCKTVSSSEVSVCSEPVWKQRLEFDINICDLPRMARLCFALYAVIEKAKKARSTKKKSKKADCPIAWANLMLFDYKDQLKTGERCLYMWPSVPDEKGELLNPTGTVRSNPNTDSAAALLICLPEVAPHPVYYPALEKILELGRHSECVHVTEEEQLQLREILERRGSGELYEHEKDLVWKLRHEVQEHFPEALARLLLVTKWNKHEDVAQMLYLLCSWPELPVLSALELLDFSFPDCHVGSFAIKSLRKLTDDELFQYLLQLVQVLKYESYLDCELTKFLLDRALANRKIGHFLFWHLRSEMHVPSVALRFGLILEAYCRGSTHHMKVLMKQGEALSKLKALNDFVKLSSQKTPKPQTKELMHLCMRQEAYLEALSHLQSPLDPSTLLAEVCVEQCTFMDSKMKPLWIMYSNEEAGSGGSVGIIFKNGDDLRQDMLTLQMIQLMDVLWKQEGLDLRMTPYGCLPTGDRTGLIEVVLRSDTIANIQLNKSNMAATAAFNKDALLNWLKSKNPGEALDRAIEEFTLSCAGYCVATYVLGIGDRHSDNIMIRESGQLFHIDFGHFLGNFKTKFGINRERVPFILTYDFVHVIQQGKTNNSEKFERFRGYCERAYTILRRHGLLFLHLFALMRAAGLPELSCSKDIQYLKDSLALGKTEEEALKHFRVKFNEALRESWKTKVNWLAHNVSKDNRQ
The assay is described as follows: PI3 kinase assay (Kinase-Glo luminescence), PI3K delta. Conditions: Enzymatic Data; read-out: PI3K delta IC50 [umol]. The procedure, abridged: as §1

The target in assay [4] is T4, PI3K beta (Homo sapiens, UniProt P42338).
T4 construct: for the full-length p110-b subunit are generated and fused by overlapping PCR; His tag (C); made in house; host or cells: baculovirus; Tn5 (Trichoplusia ni) or TiniPro insect cells
T4 sequence (P42338 with tags, fused parts or gaps limits assumed): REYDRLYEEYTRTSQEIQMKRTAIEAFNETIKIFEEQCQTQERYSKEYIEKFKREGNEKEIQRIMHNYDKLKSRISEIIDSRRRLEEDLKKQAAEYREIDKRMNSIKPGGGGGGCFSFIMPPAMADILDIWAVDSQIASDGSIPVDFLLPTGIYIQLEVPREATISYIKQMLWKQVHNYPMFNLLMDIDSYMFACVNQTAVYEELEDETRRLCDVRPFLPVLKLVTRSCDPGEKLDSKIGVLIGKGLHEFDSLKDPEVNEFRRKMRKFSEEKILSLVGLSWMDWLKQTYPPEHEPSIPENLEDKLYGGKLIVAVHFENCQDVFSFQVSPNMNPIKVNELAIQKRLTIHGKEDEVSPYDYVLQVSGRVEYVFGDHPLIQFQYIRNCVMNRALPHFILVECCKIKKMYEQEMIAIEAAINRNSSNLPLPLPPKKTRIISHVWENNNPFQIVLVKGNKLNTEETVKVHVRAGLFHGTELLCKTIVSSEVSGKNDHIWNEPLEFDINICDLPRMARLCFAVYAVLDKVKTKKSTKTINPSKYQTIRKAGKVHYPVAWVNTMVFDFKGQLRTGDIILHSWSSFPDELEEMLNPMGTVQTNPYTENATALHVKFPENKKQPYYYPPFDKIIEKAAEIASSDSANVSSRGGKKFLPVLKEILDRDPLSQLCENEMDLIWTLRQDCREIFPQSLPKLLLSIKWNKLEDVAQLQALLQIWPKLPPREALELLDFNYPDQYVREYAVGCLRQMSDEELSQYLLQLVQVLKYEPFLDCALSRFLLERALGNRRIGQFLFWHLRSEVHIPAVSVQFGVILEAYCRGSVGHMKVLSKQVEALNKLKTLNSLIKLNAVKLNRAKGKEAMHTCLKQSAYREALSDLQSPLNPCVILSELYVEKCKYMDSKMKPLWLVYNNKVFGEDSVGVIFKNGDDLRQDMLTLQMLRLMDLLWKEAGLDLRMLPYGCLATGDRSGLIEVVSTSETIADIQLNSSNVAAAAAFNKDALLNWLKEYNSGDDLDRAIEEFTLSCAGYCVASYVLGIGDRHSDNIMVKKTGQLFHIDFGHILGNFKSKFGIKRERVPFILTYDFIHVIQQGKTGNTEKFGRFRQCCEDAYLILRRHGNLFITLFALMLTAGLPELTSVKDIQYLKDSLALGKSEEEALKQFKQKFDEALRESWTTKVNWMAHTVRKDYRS
As to the kind of experiment: PI3 kinase assay (Kinase-Glo luminescence), PI3K beta. Conditions: Enzymatic Data; read-out: PI3K beta IC50 [umol]. Put shortly:
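PI3Kβ (25 nM, BV-949) with 10 μg/mL phosphatidylinositol in Tris pH 7.5/MgCl2/NaCl/CHAPS/DTT buffer; reaction started with 1 μM ATP, 60 min at room temperature. ATP depletion read by Kinase-Glo luminescence; 8-point dilutions, IC50 by four-parameter logistic fit.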

T1 sequence (P48736 144-1102 limits assumed): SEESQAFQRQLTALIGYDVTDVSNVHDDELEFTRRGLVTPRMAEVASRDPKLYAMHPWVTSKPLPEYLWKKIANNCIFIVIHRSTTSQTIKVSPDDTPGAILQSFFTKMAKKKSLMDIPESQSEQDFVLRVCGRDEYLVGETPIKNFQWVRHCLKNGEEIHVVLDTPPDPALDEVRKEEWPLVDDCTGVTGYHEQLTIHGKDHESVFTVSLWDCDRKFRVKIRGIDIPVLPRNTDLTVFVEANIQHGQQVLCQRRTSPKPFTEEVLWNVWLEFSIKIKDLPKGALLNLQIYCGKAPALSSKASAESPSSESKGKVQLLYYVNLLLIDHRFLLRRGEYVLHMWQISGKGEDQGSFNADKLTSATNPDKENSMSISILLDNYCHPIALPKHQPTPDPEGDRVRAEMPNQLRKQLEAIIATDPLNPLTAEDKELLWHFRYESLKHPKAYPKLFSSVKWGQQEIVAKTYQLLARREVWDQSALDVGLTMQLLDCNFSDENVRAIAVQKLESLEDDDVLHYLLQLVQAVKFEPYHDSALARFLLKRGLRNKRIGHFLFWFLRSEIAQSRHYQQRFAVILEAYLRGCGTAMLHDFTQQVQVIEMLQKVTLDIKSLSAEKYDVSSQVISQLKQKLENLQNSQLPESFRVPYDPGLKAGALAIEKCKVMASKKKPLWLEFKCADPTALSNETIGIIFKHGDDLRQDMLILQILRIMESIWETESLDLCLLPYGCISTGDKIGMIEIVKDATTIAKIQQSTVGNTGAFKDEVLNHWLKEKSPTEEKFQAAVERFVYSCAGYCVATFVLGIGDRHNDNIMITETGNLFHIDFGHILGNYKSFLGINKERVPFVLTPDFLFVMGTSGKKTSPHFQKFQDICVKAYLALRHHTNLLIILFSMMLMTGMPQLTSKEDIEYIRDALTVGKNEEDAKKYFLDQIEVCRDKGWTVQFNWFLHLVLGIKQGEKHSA

For the compound `Nc1ncc(-c2ccc3ncc(-c4ccc(C(=O)N5CCN(CCO)CC5)cc4)n3n2)cc1C(F)(F)F` [Example 145], the IC50 in assay [1] stood at 6920 nM; in assay [2], 97 nM; in assay [3], 151 nM; in assay [4] it was 508 nM.
Taken in the same sequence, the figures for `Nc1ncc(-c2cnc3ccc(-c4ccc(OCC5(NC(=O)C6CC6)COC5)cc4)nn23)cc1C(F)(F)F` [Example 146, Cyclopropanecarboxylic acid (3-{4-[3-(6-amino-5-trifluoromethyl-pyridin-3-yl)-imidazo[1,2-b]pyridazin-6-yl]-phenoxymethyl}-oxetan-3-yl)-amide] were 1730 nM, 54 nM, 280 nM and 2540 nM.
With `CCN(CC)CCn1cnc2cc(-c3cnc4ccc(-c5cnc(N)c(C(F)(F)F)c5)nn34)cnc21` [Example 149, 5-{3-[3-(2-Diethyl-amino-ethyl)-3H-imidazo [4,5-b]pyridin-6-yl]-imidazo [1,2-b]pyridazin-6-yl}-3-trifluoro-methyl-pyridin-2-ylamine], the IC50 in assay [1] came to 404 nM; in assay [2] it was 19 nM; in assay [3], 14 nM; in assay [4], 40 nM.
On to `Nc1ncc(-c2ccc3ncc(-c4ccc(C(=O)NCCn5ccnc5)cc4)n3n2)cc1C(F)(F)F` [Example 150, 4-[6-(6-Amino-5-trifluoro-methyl-pyridin-3-yl)-imidazo [1,2-b]pyridazin-3-yl]-N-{2-imidazol-1-yl-ethyl)-benzamide], for which the IC50 in assay [1] was more than 9100 nM; in assay [2], 13 nM; in assay [3], 31 nM; in assay [4], 132 nM.
For `Nc1ncc(-c2ccc3ncc(-c4ccc(C(=O)NCCN5CCOCC5)cc4F)n3n2)cc1C(F)(F)F` [Example 151, 4-[6-(6-Amino-5-trifluoro-methyl-pyridin-3-yl)-imidazo [1,2-b]pyridazin-3-yl]-3-fluoro-N-(2-morpholin-4-yl-ethyl)-benzamide], the IC50 in assay [1] stood at 946 nM; in assay [2], 8 nM; in assay [3] it was 27 nM; in assay [4], 141 nM.
Turning to `Nc1ncc(-c2ccc3ncc(-c4ccc(C(=O)NCCCN5CCOCC5)cc4F)n3n2)cc1C(F)(F)F` [Example 152, 4-[6-(6-Amino-5-trifluoro-methyl-pyridin-3-yl)-imidazo [1,2-b]pyridazin-3-yl]-3-fluoro-N-(3-morpholin-4-yl-propyl)-benzamide], the IC50 stood at 485 nM in assay [1], 9 nM in assay [2], 13 nM in assay [3] and 40 nM in assay [4].
The matching figures for `Nc1ncc(-c2ccc3ncc(-c4ccc(C(=O)NCCN5CCS(=O)(=O)CC5)cc4F)n3n2)cc1C(F)(F)F` [Example 153, 4-[6-(6-Amino-5-trifluoro-methyl-pyridin-3-yl)-imidazo [1,2-b]pyridazin-3-yl]-N-[2-(1,1-dioxo-1lambda*6*- thio-morpholin-4-yl)-ethyl]-3-fluoro-benzamide]: 1260 nM, 8 nM, 13 nM and 271 nM.
Taken in the same sequence, the figures for `Nc1ncc(-c2ccc3ncc(-c4ccc(C(=O)NCCN5CCS(=O)(=O)CC5)cc4)n3n2)cc1C(F)(F)F` [Example 154, 4-[6-(6-Amino-5-trifluoro-methyl-pyridin-3-yl)-imidazo [1,2-b]pyridazin-3-yl]-N-[2-(1,1-dioxo-1lambda*6*- thio-morpholin-4-yl)-ethyl]-benzamide] were 267 nM, 5 nM, 6 nM and 71 nM.
The matching figures for `Nc1ncc(-c2cnc3ccc(-c4ccc5c(c4)OCO5)nn23)cc1C(F)(F)F` [Example 155, 5-(6-Benzo[1,3]dioxol-5-yl-imidazo [1,2-b]pyridazin-3-yl)-3-trifluoro-methyl-pyridin-2-ylamine]: more than 9100 nM, 70 nM, 174 nM and 639 nM.
Consider `Nc1ncc(-c2ccc3ncc(-c4ccc(C(=O)NCCn5ccnc5)cc4F)n3n2)cc1C(F)(F)F` [Example 156, 4-[6-(6-Amino-5-trifluoro-methyl-pyridin-3-yl)-imidazo [1,2-b]pyridazin-3-yl]-3-fluoro-N-(2-imidazol-1-yl-ethyl)-benzamide], for which the IC50 in assay [1] was 400 nM; in assay [2] it was 8 nM; in assay [3], 14 nM; in assay [4], 73 nM.
The matching figures for `Nc1ncc(-c2cnc3ccc(-c4ccc(OCCNC(=O)C5CC5)cc4)nn23)cc1C(F)(F)F` [Example 157, Cyclo-propane-carboxylic acid (2-{4-[3-(6-amino-5-trifluoro-methyl-pyridin-3-yl)-imidazo [1,2-b]pyridazin-6-yl]-phenoxy}-ethyl)-amide]: 2040 nM, 21 nM, 202 nM and 842 nM.
The matching figures for `COc1cc(-c2cnc3ccc(-c4cnc(N)c(C(F)(F)F)c4)nn23)c(F)cc1C(=O)NCCN1CCOCC1` [Example 158, 4-[6-(6-Amino-5-trifluoro-methyl-pyridin-3-yl)-imidazo [1,2-b]pyridazin-3-yl]-5-fluoro-2-methoxy-N-(2-morpholin-4-yl-ethyl)-benzamide]: more than 9100 nM, 38 nM, 113 nM and 388 nM.
With `COc1cc(-c2cnc3ccc(-c4cnc(N)c(C(F)(F)F)c4)nn23)c(F)cc1C(=O)NCCCN1CCOCC1` [Example 159, 4-[6-(6-Amino-5-trifluoro-methyl-pyridin-3-yl)-imidazo [1,2-b]pyridazin-3-yl]-5-fluoro-2-methoxy-N-(3-morpholin-4-yl-propyl)-benzamide], the IC50 came to 617 nM in assay [1], 18 nM in assay [2], 13 nM in assay [3] and 36 nM in assay [4].
Consider `COc1cc(-c2cnc3ccc(-c4cnc(N)c(C(F)(F)F)c4)nn23)c(F)cc1C(=O)NCCN1CCS(=O)(=O)CC1` [Example 160, 4-[6-(6-Amino-5-trifluoro-methyl-pyridin-3-yl)-imidazo [1,2-b]pyridazin-3-yl]-N-[2-(1,1-dioxo-1lambda*6*- thio-morpholin-4-yl)-ethyl]-5-fluoro-2-methoxy-benzamide], for which the IC50 was found to be 1260 nM in assay [1], 22 nM in assay [2], 39 nM in assay [3] and 144 nM in assay [4].
With `COc1cc(-c2cnc3ccc(-c4cnc(N)c(C(F)(F)F)c4)nn23)c(F)cc1C(=O)NCCn1ccnc1` [Example 161, 4-[6-(6-Amino-5-trifluoro-methyl-pyridin-3-yl)-imidazo (1,2-b]pyridazin-3-yl]-5-fluoro-N-(2-imidazol-1-yl-ethyl)-2-methoxy-benzamide], the IC50 in assay [1] turned out to be 2400 nM; in assay [2], 3 nM; in assay [3] it was 9 nM; in assay [4], 28 nM.
For `CC(C)(C)OC(=O)N1CCC(Oc2ccc(-c3ccc4ncc(-c5cnc(N)c(C(F)(F)F)c5)n4n3)cc2)CC1` [Example 162, 4-{4-[3-(6-Amino-5-trifluoro-methyl-pyridin-3-yl)-imidazo [1,2-b]pyridazin-6-yl]-phenoxy}-piperidine-1-carboxylic acid tert-butyl ester], the IC50 in assay [1] was more than 9100 nM; in assay [2] it was 379 nM; in assay [3] it was more than 9100 nM; in assay [4] it was more than 9100 nM.
